In patent US20060100168A1, “Method of treating cancer using adenosine and its analogs” (The Trustee of Boston University, priority 2002, published 2006):
Entries after “also recorded” stand apart in the source; their conditions may differ.

Columns and labels:
MCF-7 cells [1] = assay: Thymidine incorporation assay; type: cell-based, human; settings: treated 24 hours before thymidine
Description: (§1) Thymidine Incorporation Assay. Thymidine incorporation assays were performed as described (Zhang, Y., Wang, Z., and Ravid, K. The cell cycle in polyploid megakaryocytes is associated with reduced activity of cyclin B1-dependent cdc2 kinase. J Biol Chem, 271: 4266-4272, 1996) with modifications. Rat bone marrow cells were cultured in 25 cm^2 flasks at a concentration of 20×10^6 cells per 2 ml. After drug treatment for 24 hours, cells were incubated with ^3H-thymidine at a final concentration of 3 μCi/ml for 8 hours. For MCF-7 cells, cells were cultured in 6-well plates and incubated with ^3H-thymidine for 2 hours after drug treatment. Cells were divided into two portions, sixty percent of which were processed as described (Id.) to obtain tritium counts. The rest of the cells were lysed with Western blotting lysis buffer and protein concentrations were determined by Bio-Rad protein assay reagent (Bio-Rad, Hercules, Calif.). Tritium counts were normalized with corresponding protein concentrations to account for cell number variations.

[2] = tested on: primary rat bone marrow cells; assay: Thymidine incorporation assay; type: cell-based; settings: 24 hours, IB-MECA at 100 μM
Description: as §1

MCF-7 cells [3] = assay: Anchorage-dependent growth assay (viable cell count, Trypan Blue); type: cell-based, human; settings: for Cell Growth / Effect on MCF-7 cell growth, in words: MCF-7; for Cell Growth: 2 days of treatment, compounds at 100 μM, except adenosine (500 μM) and inosine (1 mM), normalized to vehicle control (set to 1), negative = decrease vs count before treatment, average ± SD, three experiments; for Effect on MCF-7 cell growth, in words: summary of Table 1 and discussion
Description: Anchorage-dependent growth assay: Cells were plated into 6-well plates and grown overnight before treatments. The seeding concentration of MCF-7 cells was 2×10^5/well, which was determined during preliminary experiments as not allowing the cells to reach confluency within 3 days. Cells were treated either with vehicle or ligands, as indicated. Cells were detached by incubation with trypsin (Invitrogen, Carlsbad, Calif.) and counted with a hemacytometer before or after treatment.

MCF-7 cells [4] = assay: Apoptosis by propidium iodide staining and flow cytometry (sub-diploid events); type: cell-based, human; settings: 100 μM; for Apoptosis, in words: two days; for Apoptosis: 2 days of treatment, except adenosine (500 μM) and inosine (1 mM), number of apoptotic cells compared to vehicle control (set to 1), average ± SD
Description: (§2) Flow Cytometry and Apoptosis Analysis: Cells were detached from tissue culture plates by trypsin treatment. Cells were collected by centrifugation at 1200 g for 5 minutes and washed once with PBS. Staining of cells with propidium iodide and analysis on a flow cytometer (FACScan, Becton Dickinson, Research Triangle Park, N.C.) was performed as described before (42). Data were analyzed with CellQuest software (Becton Dickinson, Research Triangle Park, N.C.). The percentage of cells appearing with a ploidy level smaller than a diploid content was calculated as an estimate of cells undergoing apoptosis.

MCF-7 cells [5] = assay: Cell cycle analysis by flow cytometry; type: cell-based, human; settings: 100 μM, except adenosine (500 μM) and inosine (1 mM); for Percentage change of diploid (G0 or G1 phase) population compared to vehicle-treated cells: first number in parentheses; for Percentage change of S phase population compared to vehicle-treated cells: second number in parentheses; for Percentage change of tetraploid (G2 or M phase) population compared to vehicle-treated cells: third number in parentheses
Description: as §2

MCF-7 cells [6] = assay: Anchorage-independent growth (soft agar) assay; type: cell-based, human; settings: for Effect on anchorage-independent growth (colony formation), in words: different concentrations
Description: Anchorage-independent growth (soft agar) assay: Soft agar assay was performed as described (40) with the following modifications. Ligands were added into the bottom and top agar before plating into 6-well plates. Cells were treated with trypsin (Invitrogen, Carlsbad, Calif.) for 5 minutes in a 37° C. incubator and pipetted several times so that most cells were in single cell forms. Cells were counted with a hemacytometer (Hausser Scientific/VWR, So. Plainfield, N.J.), and 10,000 cells were mixed with top agar and plated into each well. After the top agar had solidified, two ml of medium containing the same treatment was added on top of the agar. This covering medium was changed every two days during culture. After two weeks of culture, each well was counted for the number of colonies formed on an Olympus IX70 microscope under 40× optical amplification. A cell colony was defined as any cluster of cells that contain more than 3 cells. The average of counts from 3 random optical fields for each well was taken as the colony number and analyzed. Each treatment was performed in triplicates. The averages and standard deviations shown in the figures were calculated based on triplicate experiments.

[7] = tested on: estrogen receptor α (ERα); assay: ERα protein level by Western blot in MCF-7 cells; type: cell-based, human; settings: for ERα Level: 12 hours, 100 μM, except adenosine (500 μM), Western blot quantitated, vehicle control set to 1, average of two experiments; for ERα protein level, in words: Western blot
Description: Western Blot Analysis: Cells were washed three times in cold 1×PBS, and collected by scraping on ice. Western blot analysis was performed as we described before with the chemiluminescence method (41). […] Cyclin A, cyclin B1 and p27 antibodies were used at 1:500 dilutions. Cyclin E antibody was used at 1:1000 dilutions.

| Structure (SMILES) | Thymidine incorporation decreased to (MCF-7 cells [1]) | Thymidine incorporation reduced to [2] | Cell Growth (MCF-7 cells [3]) | Effect on MCF-7 cell growth, in words (MCF-7 cells [3]; listed as 2-chloror-deoxyadenosine) | Apoptosis, in words (MCF-7 cells [4]) | Apoptosis (MCF-7 cells [4]) | Percentage change of diploid (G0 or G1 phase) population compared to vehicle-treated cells (MCF-7 cells [5]) | Percentage change of S phase population compared to vehicle-treated cells (MCF-7 cells [5]) | Percentage change of tetraploid (G2 or M phase) population compared to vehicle-treated cells (MCF-7 cells [5]) | Effect of A3AR antagonist on IB-MECA inhibitory effect on growth (MCF-7 cells [6]; MCF-7, antagonist up to 1 μM, not shown) | ERα Level [7] | ERα protein level, in words [7] | Effect on MCF-7 cell growth, in words (MCF-7 cells [3]) | Cell Cycle Arrest (position of arrest) (MCF-7 cells [5]; flow cytometry) | Effect on anchorage-independent growth (colony formation), in words (MCF-7 cells [6]; MCF-7 soft agar, two weeks) | Effect of nucleoside transporter inhibitor on growth inhibitory effect of IB-MECA (MCF-7 cells [3]; 10 μM) | Effect on cell growth by itself (MCF-7 cells [3]; at higher concentrations than 10 μM) | inhibition at 1000 µM (MCF-7 cells [6]; Homo sapiens, MCF7, 336 h, MCF-7 soft agar, 1 mM, two weeks, read-out: Inhibition of colony-forming ability) |
| --- | --- | --- | --- | --- | --- | --- | --- | --- | --- | --- | --- | --- | --- | --- | --- | --- | --- | --- |
| Nc1nc(Cl)nc2c1ncn2[C@H]1C[C@H](O)[C@@H](CO)O1 [CdA, 2-chloro-2′-deoxyadenosine] | 43% | 32% | 0.13 ± 0.01 | significantly inhibited; also recorded: as effective at 1 μM (not shown) as at 100 μM | induced cellular apoptosis | 1.80 ± 0.17 | −69% | 165% | 20% |  |  |  |  |  |  |  |  |  |
| CCOC(=O)C1=C(C)NC(c2ccccc2)=C(C(=O)OCc2ccccc2)C1C#Cc1ccccc1 (centres unmarked) [MRS1191] |  |  |  |  |  |  |  |  |  | did not abolish |  |  |  |  |  |  |  |  |
| CCNC(=O)[C@H]1O[C@@H](n2cnc3c(N)ncnc32)[C@H](O)[C@@H]1O [NECA, 5′-(N-Ethylcarboxamido)adenosine] |  |  | 0.90 ± 0.16 |  |  | 0.99 ± 0.05 | 0% | 3% | −3% |  | 0.92 | no significant change | no significant effect on cell growth; also recorded: did not have a significant effect | Not Detectable | did not inhibit |  |  |  |
| OC[C@H]1O[C@@H](n2cnc3c(O)ncnc32)[C@H](O)[C@@H]1O [Inosine] |  |  | 0.90 ± 0.12 |  |  | 1.02 ± 0.14 | −24% | 43% | 8% |  |  |  | no significant effect on cell growth |  | No effect |  |  |  |
| Nc1ncnc2c1ncn2[C@@H]1O[C@H](CO)C[C@H]1O [Cordycepin, 3′-deoxyadenosine] |  |  | 0.24 ± 6 |  | without inducing apoptosis | 0.43 ± 0.07 | −26% | 10% | 62% |  | 0.58 | significantly inhibited cell growth and ERα levels | significantly inhibited cell growth |  |  |  |  |  |
| OCCN(CCO)c1nc(N2CCCCC2)c2nc(N(CCO)CCO)nc(N3CCCCC3)c2n1 [dipyridamole] |  |  |  |  |  |  |  |  |  |  |  |  |  |  |  | did not prevent the growth inhibitory effect of IB-MECA | inhibitory effect on cell growth |  |
| OC[C@H]1O[C@@H](n2cnc3c(NC4CCCC4)nc(Cl)nc32)[C@H](O)[C@@H]1O [CCPA, 2-Chloro-N^6-cyclopentyladenosine] |  |  | 0.79 ± 0.16 |  |  | 0.49 ± 0.12 | 3% | −18% | 11% |  | 1.16 |  | no significant effect on cell growth; also recorded: did not have a significant effect |  | did not inhibit |  |  |  |
| Nc1ncnc2c1ncn2[C@@H]1O[C@H](CO)[C@@H](O)[C@H]1O [Adenosine] |  |  | 0.49 ± 0.04 |  |  | 1.06 ± 0.17 | −25% | −56% | 97% |  | 1.07 |  |  |  | dose-dependent inhibition of colony formation |  |  | ~50% |
| Nc1nc(Cl)nc2c1ncn2[C@@H]1O[C@H](CO)[C@@H](O)[C@H]1O [CADO, 2-chloro-adenosine] |  |  | −0.02 ± 0.02 |  | without inducing apoptosis | 0.84 ± 0.6 | −11% | 11% | 20% |  | 0.41 | significantly inhibited cell growth and ERα levels | significantly inhibited cell growth |  |  |  |  |  |
| CCNC(=O)[C@H]1O[C@@H](n2cnc3c(N)nc(NCCc4ccc(CCC(=O)O)cc4)nc32)[C@H](O)[C@@H]1O [CGS21680, 2-p-(2-Carboxyethyl)phenethylamino-5′-N-ethylcarboxamidoadenosine] |  |  |  |  |  |  |  |  |  |  |  |  | did not have a significant effect |  | did not inhibit |  |  |  |
